Experimental data from patent US8592629B2, “Sulfonamide derivatives as Nav 1.7 inhibitors” (Pfizer Limited, priority 2010, dated 2013).

What follows are molecules tested against T1, Nav1.7 (or SCN9A) channel (Homo sapiens, UniProt Q15858) (assay: Nav1.7 (hSCN9A) block in HEK cells, PatchXpress 7000 automated electrophysiology, estimated IC50 (EIC50)). Details: PatchXpress assay; HEK cells stably transfected with hSCN9A, voltage-clamped at V1/2 of inactivation.
T1 construct: expressed in transfected cells
T1 sequence (Q15858 whole entry): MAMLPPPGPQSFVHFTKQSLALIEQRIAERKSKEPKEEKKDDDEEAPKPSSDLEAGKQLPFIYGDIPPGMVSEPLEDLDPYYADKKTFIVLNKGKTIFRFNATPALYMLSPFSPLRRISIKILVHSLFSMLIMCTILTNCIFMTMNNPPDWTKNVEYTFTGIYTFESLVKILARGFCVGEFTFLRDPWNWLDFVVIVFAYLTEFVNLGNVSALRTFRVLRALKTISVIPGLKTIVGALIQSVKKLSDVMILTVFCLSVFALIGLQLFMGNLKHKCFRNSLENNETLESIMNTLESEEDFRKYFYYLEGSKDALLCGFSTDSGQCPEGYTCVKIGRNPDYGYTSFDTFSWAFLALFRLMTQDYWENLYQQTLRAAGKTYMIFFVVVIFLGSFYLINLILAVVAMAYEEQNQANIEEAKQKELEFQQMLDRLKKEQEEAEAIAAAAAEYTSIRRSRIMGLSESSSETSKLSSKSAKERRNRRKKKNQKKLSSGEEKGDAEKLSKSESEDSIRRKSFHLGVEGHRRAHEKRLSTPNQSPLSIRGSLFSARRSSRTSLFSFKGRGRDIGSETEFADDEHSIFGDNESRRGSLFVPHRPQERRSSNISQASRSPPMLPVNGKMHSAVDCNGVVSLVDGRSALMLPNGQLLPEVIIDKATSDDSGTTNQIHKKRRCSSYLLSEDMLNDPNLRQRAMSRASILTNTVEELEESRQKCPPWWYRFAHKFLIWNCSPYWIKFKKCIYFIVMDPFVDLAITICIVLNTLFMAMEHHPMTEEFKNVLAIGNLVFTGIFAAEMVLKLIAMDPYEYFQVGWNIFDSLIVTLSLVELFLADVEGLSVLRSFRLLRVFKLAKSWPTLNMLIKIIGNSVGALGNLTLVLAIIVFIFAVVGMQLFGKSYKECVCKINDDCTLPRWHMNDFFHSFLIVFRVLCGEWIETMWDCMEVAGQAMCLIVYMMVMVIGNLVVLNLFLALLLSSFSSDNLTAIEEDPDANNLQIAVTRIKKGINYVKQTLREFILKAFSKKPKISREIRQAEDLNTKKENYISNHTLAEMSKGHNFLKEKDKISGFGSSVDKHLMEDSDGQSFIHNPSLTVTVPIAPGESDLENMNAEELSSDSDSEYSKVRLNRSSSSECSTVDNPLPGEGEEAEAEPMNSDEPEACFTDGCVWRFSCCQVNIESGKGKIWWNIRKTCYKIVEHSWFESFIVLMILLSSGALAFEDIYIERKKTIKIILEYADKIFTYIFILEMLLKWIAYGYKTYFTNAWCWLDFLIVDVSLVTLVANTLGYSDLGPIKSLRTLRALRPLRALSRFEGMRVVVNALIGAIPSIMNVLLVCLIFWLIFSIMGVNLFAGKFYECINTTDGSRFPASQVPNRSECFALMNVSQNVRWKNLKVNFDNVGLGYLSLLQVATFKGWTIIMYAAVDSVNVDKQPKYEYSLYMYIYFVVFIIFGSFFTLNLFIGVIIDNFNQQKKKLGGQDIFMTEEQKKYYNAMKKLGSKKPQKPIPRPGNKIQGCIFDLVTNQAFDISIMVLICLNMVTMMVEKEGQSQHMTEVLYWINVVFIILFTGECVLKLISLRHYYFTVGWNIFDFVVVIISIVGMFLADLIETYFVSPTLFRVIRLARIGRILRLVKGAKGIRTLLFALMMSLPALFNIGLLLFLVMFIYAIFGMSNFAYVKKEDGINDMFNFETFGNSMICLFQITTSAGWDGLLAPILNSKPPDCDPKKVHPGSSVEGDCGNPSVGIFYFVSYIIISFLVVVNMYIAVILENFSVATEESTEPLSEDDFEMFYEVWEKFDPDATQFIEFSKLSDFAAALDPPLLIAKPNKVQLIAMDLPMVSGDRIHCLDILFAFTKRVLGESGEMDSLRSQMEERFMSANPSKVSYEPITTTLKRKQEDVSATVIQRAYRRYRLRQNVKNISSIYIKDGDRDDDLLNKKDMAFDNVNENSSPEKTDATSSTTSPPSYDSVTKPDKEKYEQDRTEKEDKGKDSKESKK
Type: cell-based
Method: The ability of the compounds of formula (I) to block the Nav1.7 (or SCN9A) channel were measured using the assay described below.
Human Embryonic Kidney (HEK) cells were transfected with an hSCN9A construct using lipofectamine reagent (Invitrogen), using standard techniques. Cells stably expressing the hSCN9A constructs were identified by their resistance to G-418 (400 μg/ml). Clones were screened for expression using the whole-cell voltage-clamp technique.
HEK cells stably transfected with hSCN9A were maintained in DMEM medium supplemented with 10% heat-inactivated fetal bovine serum and 400 μg/ml G-418 in an incubator at 37° C. with a humidified atmosphere of 10% CO2. For HTS, cells were harvested from flasks by trypsinization and replated in an appropriate multi-well plate (typically 96 or 384 wells/plate) such that confluence would be achieved within 24 hours of plating. For electrophysiological studies, cells were removed from the culture flask by brief trypsinization and re-plated at low density onto glass cover slips. Cells were typically used for electrophysiological experiments within 24 to 72 hours after plating.
HEK cells stably transfected with hSCN9A were viewed under Hoffman contrast optics and placed in front of an array of flow pipes emitting either control or compound-containing extracellular solutions. All compounds were dissolved in dimethyl sulfoxide to make 10 mM stock solutions, which were then diluted into extracellular solution to attain the final concentrations desired. […] The voltage-dependence of inactivation was determined by applying a series of depolarizing prepulses (8 sec long in 10 mV increments) from a negative holding potential. The voltage was then immediately stepped to 0 mV to assess the magnitude of the sodium current. Currents elicited at 0 mV were plotted as a function of prepulse potential to allow estimation of the voltage at which 50% of the channels were inactivated (midpoint of inactivation or V1/2). Compounds were tested for their ability to inhibit hSCN9A sodium channels by activating the channel with a 20 msec voltage step to 0 mV following an 8 second conditioning prepulse to the empirically determined V1/2. Compound effect (% inhibition) was determined by difference in current amplitude before and after application of test compounds. For ease of comparison, “estimated IC-50” (EIC50) values were calculated from single point electrophysiology data by the following equation, (tested concentration, uM) X (100-% inhibition/% inhibition). Inhibition values <20% and >80% were excluded from the calculation.
Electrophysiological assays were conducted with PatchXpress 7000 hardware and associated software (Molecular Devices Corp). All assay buffers and solutions were identical to those used in conventional whole-cell voltage clamp experiments described above. hSCN9A cells were grown as above to 50%-80% confluency and harvested by trypsinization. Trypsinized cells were washed and resuspended in extracellular buffer at a concentration of 1×10^6 cells/ml. The onboard liquid handling facility of the PatchXpress was used for dispensing cells and application of test compounds. Determination of the voltage midpoint of inactivation was as described for conventional whole-cell recordings. Cells were then voltage-clamped to the empirically determined V1/2 and current was activated by a 20 msec voltage step to 0 mV.
Compounds of the Examples were tested in the assays described above and found to have the Nav1.7 EIC50 (μM) values specified in the table below. All data are derived from the PatchXpress assay unless explicitly stated otherwise.

Compared with `CC(C)Oc1ncc(Oc2c(F)cc(C(=O)NS(C)(=O)=O)cc2F)cc1Cl` [Example 32, 4-[(5-chloro-6-isopropoxypyridin-3-yl)oxy]-3,5-difluoro-N-(methylsulfonyl)benzamide], `CC(C)Oc1ncc(Oc2ccc(C(=O)NS(C)(=O)=O)cc2F)cc1Cl` [Example 33, 4-[(5-chloro-6-isopropoxypyridin-3-yl)oxy]-3-fluoro-N-(methylsulfonyl)benzamide] is 2.1-fold higher in IC50: 0.34 µM for the first, 0.7 µM for the second.

First: CC(C)(C)Oc1ncc(Oc2cc(F)c(C(=O)NS(C)(=O)=O)cc2F)cc1Cl [Example 34, 4-[(6-tert-butoxy-5-chloropyridin-3-yl)oxy]-2,5-difluoro-N-(methylsulfonyl)benzamide]
Second: CC(C)(C)c1ncc(Oc2cc(F)c(C(=O)NS(C)(=O)=O)cc2F)cc1Cl [Example 51, 4-[(6-tert-butyl-5-chloropyridin-3-yl)oxy]-2,5-difluoro-N-(methylsulfonyl)benzamide]
The IC50 of the first is 8.2-fold lower: 0.033 µM for the first, 0.27 µM for the second.

First: CS(=O)(=O)NC(=O)c1cc(F)c(Oc2cnc(OCC3CC3)c(Cl)c2)cc1F [Example 35, 4-{[5-chloro-6-(cyclopropylmethoxy)pyridin-3-yl]oxy}-2,5-difluoro-N-(methylsulfonyl)benzamide]
Second: CS(=O)(=O)NC(=O)c1cc(F)c(Oc2cnc(C3CC3)c(Cl)c2)cc1F [Example 50, 4-[(5-chloro-6-cyclopropylpyridin-3-yl)oxy]-2,5-difluoro-N-(methylsulfonyl)benzamide]
The IC50 of the first is 3.9-fold lower: 0.041 µM for the first, 0.16 µM for the second. The first is the more potent here.

First: CC(C)Oc1ncc(Oc2ccc(C(=O)NS(C)(=O)=O)c(F)c2)cc1Cl [Example 36, 4-[(5-chloro-6-isopropoxypyridin-3-yl)oxy]-2-fluoro-N-(methylsulfonyl)benzamide]
Second: CC(C)Oc1ncc(Oc2cc(F)c(C(=O)NS(C)(=O)=O)cc2Cl)cc1Cl [Example 39, 5-chloro-4-[(5-chloro-6-isopropoxypyridin-3-yl)oxy]-2-fluoro-N-(methylsulfonyl)benzamide]
The IC50 of the first is 12-fold higher: 0.31 µM for the first, 0.025 µM for the second.

First: CS(=O)(=O)NC(=O)c1cc(Cl)c(Oc2cnc(OC3CCOCC3)c(Cl)c2)cc1F [Example 37, 5-chloro-4-{[5-chloro-6-(tetrahydro-2H-pyran-4-yloxy)pyridin-3-yl]oxy}-2-fluoro-N-(methylsulfonyl)benzamide]
Second: CS(=O)(=O)NC(=O)c1cc(Cl)c(Oc2cnc(OC3CC3)c(Cl)c2)cc1F [Example 55, 5-chloro-4-{[5-chloro-6-(cyclopropyloxy)pyridin-3-yl]oxy}-2-fluoro-N-(methylsulfonyl)benzamide]
The IC50 of the first is 2.9-fold higher: 0.14 µM for the first, 0.048 µM for the second. The second is the more potent here.

Going from `CC(C)COc1ncc(Oc2cc(F)c(C(=O)NS(C)(=O)=O)cc2Cl)cc1Cl` [Example 38, 5-chloro-4-[(5-chloro-6-isobutoxypyridin-3-yl)oxy]-2-fluoro-N-(methylsulfonyl)benzamide] to `CS(=O)(=O)NC(=O)c1cc(Cl)c(Oc2cnc(OCC(F)F)c(Cl)c2)cc1F` [Example 52, 5-chloro-4-{[5-chloro-6-(2,2-difluoroethoxy)pyridin-3-yl]oxy}-2-fluoro-N-(methylsulfonyl)benzamide], the IC50 rises from 0.0075 µM to 0.16 µM (21-fold).

`[2H]C([2H])([2H])C([2H])(Oc1ncc(Oc2cc(F)c(C(=O)NS(C)(=O)=O)cc2F)cc1Cl)C([2H])([2H])[2H]` [Example 40, -({5-chloro-6-[d7-propan-2-yloxy]pyridin-3-yl}oxy)-2,5-difluoro-N-(methylsulfonyl)benzamide] and `[2H]C(C)(C)Oc1ncc(Oc2cc(F)c(C(=O)NS(C)(=O)=O)cc2F)cc1Cl` [Example 41, 4-({5-chloro-6-[2-d1-propan-2-yloxy]pyridin-3-yl}oxy)-2,5-difluoro-N-(methylsulfonyl)benzamide] are within 1.5-fold of each other in IC50: 0.13 µM for the first, 0.19 µM for the second.

Going from `CC(Oc1ncc(Oc2cc(F)c(C(=O)NS(C)(=O)=O)cc2Cl)cc1Cl)C(F)(F)F` (stereo not drawn) [Example 43, 5-chloro-4-{[5-chloro-6-(2,2,2-trifluoro-1-methylethoxy)pyridin-3-yl]oxy}-2-fluoro-N-(methylsulfonyl)benzamide] to `CS(=O)(=O)NC(=O)c1cc(Cl)c(Oc2cnc(OC(F)F)c(Cl)c2)cc1F` [Example 54, 5-chloro-4-{[5-chloro-6-(difluoromethoxy)pyridin-3-yl]oxy}-2-fluoro-N-(methylsulfonyl)benzamide], the IC50 rises from 0.011 µM to 0.18 µM (16-fold). The first is the more potent here.

Compared with `CC(F)(F)c1ncc(Oc2cc(F)c(C(=O)NS(C)(=O)=O)cc2Cl)cc1Cl` [Example 44, 5-chloro-4-{[5-chloro-6-(1,1-difluoroethyl)pyridin-3-yl]oxy}-2-fluoro-N-(methylsulfonyl)benzamide], `CC(C)C(F)(F)c1ncc(Oc2cc(F)c(C(=O)NS(C)(=O)=O)cc2Cl)cc1Cl` [Example 60, 5-chloro-4-{[5-chloro-6-(1,1-difluoro-2-methylpropyl)pyridin-3-yl]oxy}-2-fluoro-N-(methylsulfonyl)benzamide] is 4-fold lower in IC50: 0.56 µM for the first, 0.14 µM for the second.

Compared with `CS(=O)(=O)NC(=O)c1cc(F)c(Oc2cnc(OCC(F)(F)C(F)F)c(Cl)c2)cc1F` [Example 45, 4-{[5-chloro-6-(2,2,3,3-tetrafluoropropoxy)pyridin-3-yl]oxy}-2,5-difluoro-N-(methylsulfonyl)benzamide], `CS(=O)(=O)NC(=O)c1cc(Cl)c(Oc2cnc(OCC(F)(F)F)c(Cl)c2)cc1F` [Example 58, 5-chloro-4-{[5-chloro-6-(2,2,2-trifluoroethoxy)pyridin-3-yl]oxy}-2-fluoro-N-(methylsulfonyl)benzamide] is 4.8-fold lower in IC50: 0.11 µM for the first, 0.023 µM for the second. The second is the more potent here.

`CC(C)Oc1ccc(Oc2cc(F)c(C(=O)NS(C)(=O)=O)cc2F)cn1` [Example 47, 2,5-difluoro-4-[(6-isopropoxypyridin-3-yl)oxy]-N-(methylsulfonyl)benzamide] and `CC(C)Cc1ncc(Oc2cc(F)c(C(=O)NS(C)(=O)=O)cc2F)cc1Cl` [Example 49, 4-[(5-chloro-6-isobutylpyridin-3-yl)oxy]-2,5-difluoro-N-(methylsulfonyl)benzamide] are within 1.5-fold of each other in IC50: 0.68 µM for the first, 0.76 µM for the second.

Going from `CC(C)(O)c1ncc(Oc2cc(F)c(C(=O)NS(C)(=O)=O)cc2Cl)cc1Cl` [Example 48, 5-chloro-4-{[5-chloro-6-(1-hydroxy-1-methylethyl)pyridin-3-yl]oxy}-2-fluoro-N-(methylsulfonyl)benzamide] to `CC(C)(F)COc1ncc(Oc2cc(F)c(C(=O)NS(C)(=O)=O)cc2Cl)cc1Cl` [Example 57, 5-chloro-4-{[5-chloro-6-(2-fluoro-2-methylpropoxy)pyridin-3-yl]oxy}-2-fluoro-N-(methylsulfonyl)benzamide], the IC50 falls from 3.5 µM to 0.094 µM (37-fold).

Compared with `CS(=O)(=O)NC(=O)c1cc(Cl)c(Oc2cnc(OC(CF)CF)c(Cl)c2)cc1F` [Example 53, 5-chloro-4-({5-chloro-6-[2-fluoro-1-(fluoromethyl)ethoxy]pyridin-3-yl}oxy)-2-fluoro-N-(methylsulfonyl)benzamide], `CS(=O)(=O)NC(=O)c1cc(Cl)c(Oc2cnc(OCC(F)(F)C(F)(F)F)c(Cl)c2)cc1F` [Example 56, 5-chloro-4-{[5-chloro-6-(2,2,3,3,3-pentafluoropropoxy)pyridin-3-yl]oxy}-2-fluoro-N-(methylsulfonyl)benzamide] is 20-fold lower in IC50: 0.26 µM for the first, 0.013 µM for the second. The second is the more potent here.

With `CC(C)Oc1ncc(Oc2cc(F)c(C(=O)NS(C)(=O)=O)cc2Cl)cn1` [Example 61, 5-chloro-2-fluoro-4-[(2-isopropoxypyrimidin-5-yl)oxy]-N-(methylsulfonyl)benzamide] the IC50 was 5.5 µM.
